Type in all cases: in vivo
One data set has as its system corn. Kind of data set: Test Example 4: effect on crop by soil treatment (symbol c). The following applies: application herbicide amount 320 g/ha. Summed up: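 Soil-treatment setup: crop and weed seeds were spot-sown into sterilized diluvial soil, then buried beneath approximately 1.5 cm of it, and the boxes were housed in a 25–30° C. greenhouse.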
A further data set concerns Lolium multiflorum Lam. The data set can be described thus: Test Example 5: herbicidal effect by foliage application, plastic box (symbol K). The following applies: 320 g/ha, 3 weeks after application. Put shortly: (§1)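 Greenhouse foliar test: seedlings at 14 days, grown 25° C. to 30° C. in sterilized diluvial soil; compound applied as an aqueous dilution of an emulsion; response read 3 weeks after spraying.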

Another data set deals with soybean. The data set can be described thus: Test Example 4: effect on crop by soil treatment (symbol d). The following applies: application herbicide amount 320 g/ha. Summed up: (§2)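 Plants are raised in a greenhouse (25° C. to 30° C.) from spot-sown seed, which sits under about 1.5 cm of sterilized diluvial soil in a box shared with weed species.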
A further data set relates to wheat. The data set can be described thus: Test Example 4: effect on crop by soil treatment (symbol e). The settings on record: application herbicide amount 320 g/ha. Put shortly:
as §2

For the next data set, the system named is transplanted rice plant. The data set can be described thus: Test Example 1: effect on crop, application before weed generation in submerged conditions (symbol a). The settings on record: application herbicide amount 320 g/ha. Put shortly: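 Rice at 2.5 leaf stage transplanted into submerged soil (4 cm depth) sown with three weed species; herbicide applied before weed emergence.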

Another data set deals with rice. Kind of data set: Test Example 4: effect on crop by soil treatment (symbol b). The following applies: application herbicide amount 320 g/ha. Summed up: as §2
The test system of the next data set is Stellaria media. Kind of data set: Test Example 4: herbicidal effect by soil treatment (symbol P). The settings on record: application herbicide amount 320 g/ha. Summed up:
(§3)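 Seeds were sown in sterilized diluvial soil, covered with about 1.5 cm of soil, and the soil surface was sprayed with a water-diluted emulsion of the compound at a predetermined rate. Plants grew in a greenhouse at 25° C. to 30° C.; effects were scored visually 3 weeks after application.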

The test system of data set [1] is Echinochloa oryzacola Vasing. Kind of data set: Test Example 1: herbicidal activity, application before weed generation in submerged conditions (symbol A). The following applies: application herbicide amount 320 g/ha. Summed up: (§4)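 Application before weed emergence: an aqueous dilution of the emulsion formulation was poured onto the surface of 4 cm-deep floodwater on the day of sowing. Effect was judged after 3 weeks (greenhouse, 25–30 °C).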

Data set [2] deals with Alopecurus myosuroides. Kind of data set: Test Example 5: herbicidal effect by foliage application, plastic box (symbol J). The settings on record: 320 g/ha, 3 weeks after application. Put shortly:
as §1

The subject of the next data set is Cyperus difformis. Kind of data set: Test Example 3: herbicidal effect by foliage application, Wagner pot (symbol E). The following applies: application herbicide amount 320 g/ha. Summed up:
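Weeds and rice were sown in alluvial soil under 0.1–0.5 cm of standing water and grown for 14 days in a 25–30 °C greenhouse. An emulsion of the compound, diluted in water to a set dose, was sprayed evenly onto the foliage. Effect was scored against fixed criteria 3 weeks after treatment.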

The test system of the next data set is Setaria viridis. The data set can be described thus: Test Example 5: herbicidal effect by foliage application, plastic box (symbol G). The following applies: 320 g/ha, 3 weeks after application. Put shortly: as §1
The test system of a further data set is Galium spurium. The data set can be described thus: Test Example 5: herbicidal effect by foliage application, plastic box (symbol Q). The following applies: 320 g/ha, 3 weeks after application. Put shortly: as §1
A further data set deals with Scirpus juncoides. The data set can be described thus: Test Example 1: herbicidal activity, application before weed generation in submerged conditions (symbol B). The following applies: application herbicide amount 320 g/ha. Summed up: as §4
The test system of data set [3] is Alopecurus myosuroides. Kind of data set: Test Example 4: herbicidal effect by soil treatment (symbol J). The settings on record: application herbicide amount 320 g/ha. Summed up:
as §3

Regarding `C=CC(=O)CC1CC(O)=C(c2c(C)cc(C)cc2C)C1=O` (stereo not shown) [2-031], in the data set with corn, the “c: corn, effect on crop grade” value is 5 (Herbicidal ratio of 90% or more (almost completely withered)). Besides, in the data set with Lolium multiflorum Lam., the “K: Lolium multiflorum Lam., herbicidal effect grade” value is listed as 5 (Herbicidal ratio of 90% or more (almost completely withered)). Moreover, the “d: soybean, effect on crop grade” value with soybean was 0 (Herbicidal ratio of 5% or lower (almost no effect)). Also, the “e: wheat, effect on crop grade” value in the data set with wheat is 3 (Herbicidal ratio of 40% or higher and lower than 70%). The “Effect grade on crop, a: transplanted rice plant” value (shortened to “Effect grade on crop”) with transplanted rice plant is listed as 5 (Herbicidal ratio of 90% or more (almost completely withered)). In addition, the “b: directly sowed rice plant, effect on crop grade” value (“b: directly sowed rice plant” below) with rice is 5 (Herbicidal ratio of 90% or more (almost completely withered)). The “P: Stellaria media, herbicidal effect grade” value (from here on “P: Stellaria media”) in the data set with Stellaria media was 0 (Herbicidal ratio of 5% or lower (almost no effect)). In addition, the “Herbicidal effect grade, A: Echinochloa oryzacola Vasing.” value in data set [1] is 4 (Herbicidal ratio of 70% or higher and lower than 90%). Moreover, the “J: Alopecurus myosuroides, herbicidal effect grade” value (“J: Alopecurus myosuroides” for short) in the data set on Alopecurus myosuroides [2] was 5 (Herbicidal ratio of 90% or more (almost completely withered)); in the data set with Alopecurus myosuroides [3], 3 (Herbicidal ratio of 40% or higher and lower than 70%). For the same molecule, the “herbicidal effect on E, grade 0-5” value with Cyperus difformis is 5 (Herbicidal ratio of 90% or more (almost completely withered)). Further, the “G: Setaria viridis, herbicidal effect grade” value (“G: Setaria viridis” below) in the data set on Setaria viridis was 5 (Herbicidal ratio of 90% or more (almost completely withered)). Besides, the “Q: Galium spurium, herbicidal effect grade” value (“Q: Galium spurium” below) in the data set with Galium spurium is 0 (Herbicidal ratio of 5% or lower (almost no effect)). For the same molecule, the “Herbicidal effect grade, B: Scirpus juncoides” value (shortened to “Herbicidal effect grade, B”) with Scirpus juncoides is 4 (Herbicidal ratio of 70% or higher and lower than 90%).
As to `CCc1cc(Br)cc(C)c1C1=C(O)CC(C(C(=O)OC)C(C)=NOC)C1=O` (stereo not shown) [6-002], in the data set on corn, the “c: corn, effect on crop grade” value was 0 (Herbicidal ratio of 5% or lower (almost no effect)). In the data set on Lolium multiflorum Lam., the “K: Lolium multiflorum Lam., herbicidal effect grade” value is given as 5 (Herbicidal ratio of 90% or more (almost completely withered)). Further, the “d: soybean, effect on crop grade” value in the data set with soybean is 0 (Herbicidal ratio of 5% or lower (almost no effect)). In addition, in the data set with wheat, the “e: wheat, effect on crop grade” value is 0 (Herbicidal ratio of 5% or lower (almost no effect)). In addition, the “Effect grade on crop” value in the data set on transplanted rice plant is 3 (Herbicidal ratio of 40% or higher and lower than 70%). Also, the “b: directly sowed rice plant” value with rice is reported as 5 (Herbicidal ratio of 90% or more (almost completely withered)). Further, the “P: Stellaria media” value in the data set with Stellaria media is recorded as 0 (Herbicidal ratio of 5% or lower (almost no effect)). Also, the “Herbicidal effect grade, A: Echinochloa oryzacola Vasing.” value in [1] was 3 (Herbicidal ratio of 40% or higher and lower than 70%). Also, the “J: Alopecurus myosuroides” value in the data set with Alopecurus myosuroides [2] was 5 (Herbicidal ratio of 90% or more (almost completely withered)); with Alopecurus myosuroides [3], 2 (Herbicidal ratio of 20% or higher and lower than 40%). Also, the “herbicidal effect on E, grade 0-5” value with Cyperus difformis is listed as 0 (Herbicidal ratio of 5% or lower (almost no effect)). Besides, in the data set with Setaria viridis, the “G: Setaria viridis” value was 5 (Herbicidal ratio of 90% or more (almost completely withered)). In addition, the “Q: Galium spurium” value in the data set with Galium spurium was 0 (Herbicidal ratio of 5% or lower (almost no effect)). Besides, the “Herbicidal effect grade, B” value in the data set on Scirpus juncoides is listed as 0 (Herbicidal ratio of 5% or lower (almost no effect)).
`CON=C(C)CC1CC(O)=C(c2c(C)cc(Br)cc2C)C1=O` (stereo not shown) [6-003]: the “c: corn, effect on crop grade” value in the data set on corn was 4 (Herbicidal ratio of 70% or higher and lower than 90%). In the data set with Lolium multiflorum Lam., the “K: Lolium multiflorum Lam., herbicidal effect grade” value is 5 (Herbicidal ratio of 90% or more (almost completely withered)). Besides, the “d: soybean, effect on crop grade” value with soybean is 0 (Herbicidal ratio of 5% or lower (almost no effect)). For the same molecule, the “e: wheat, effect on crop grade” value in the data set on wheat is reported as 0 (Herbicidal ratio of 5% or lower (almost no effect)). The “Effect grade on crop” value in the data set with transplanted rice plant is 5 (Herbicidal ratio of 90% or more (almost completely withered)). In addition, the “b: directly sowed rice plant” value in the data set with rice is 5 (Herbicidal ratio of 90% or more (almost completely withered)). The “P: Stellaria media” value in the data set with Stellaria media is 0 (Herbicidal ratio of 5% or lower (almost no effect)). The “Herbicidal effect grade, A: Echinochloa oryzacola Vasing.” value in [1] is reported as 5 (Herbicidal ratio of 90% or more (almost completely withered)). Also, the “J: Alopecurus myosuroides” value in the data set with Alopecurus myosuroides [2] and with Alopecurus myosuroides [3] was 5 (Herbicidal ratio of 90% or more (almost completely withered)) in each case. Also, the “herbicidal effect on E, grade 0-5” value in the data set on Cyperus difformis is 5 (Herbicidal ratio of 90% or more (almost completely withered)). Also, the “G: Setaria viridis” value with Setaria viridis was 5 (Herbicidal ratio of 90% or more (almost completely withered)). Moreover, in the data set on Galium spurium, the “Q: Galium spurium” value was 3 (Herbicidal ratio of 40% or higher and lower than 70%). Besides, the “Herbicidal effect grade, B” value with Scirpus juncoides is 4 (Herbicidal ratio of 70% or higher and lower than 90%).
For the molecule `CON=C(C)CC1CC(O)=C(c2c(C)cc(-c3ccccc3)cc2C)C1=O` (stereo not shown) [6-015], the “c: corn, effect on crop grade” value in the data set on corn is given as 5 (Herbicidal ratio of 90% or more (almost completely withered)). Further, the “K: Lolium multiflorum Lam., herbicidal effect grade” value in the data set with Lolium multiflorum Lam. is listed as 5 (Herbicidal ratio of 90% or more (almost completely withered)). Further, in the data set on soybean, the “d: soybean, effect on crop grade” value was 0 (Herbicidal ratio of 5% or lower (almost no effect)). Also, the “e: wheat, effect on crop grade” value in the data set with wheat was 0 (Herbicidal ratio of 5% or lower (almost no effect)). Besides, the “Effect grade on crop” value in the data set on transplanted rice plant is given as 5 (Herbicidal ratio of 90% or more (almost completely withered)). The “b: directly sowed rice plant” value in the data set on rice is recorded as 5 (Herbicidal ratio of 90% or more (almost completely withered)). Also, the “P: Stellaria media” value in the data set with Stellaria media was 2 (Herbicidal ratio of 20% or higher and lower than 40%). In [1], the “Herbicidal effect grade, A: Echinochloa oryzacola Vasing.” value is on record as 5 (Herbicidal ratio of 90% or more (almost completely withered)). The “J: Alopecurus myosuroides” value in the data set on Alopecurus myosuroides [2] and in the data set with Alopecurus myosuroides [3] was 5 (Herbicidal ratio of 90% or more (almost completely withered)) in each case. For the same molecule, the “herbicidal effect on E, grade 0-5” value in the data set on Cyperus difformis was 5 (Herbicidal ratio of 90% or more (almost completely withered)). Further, the “G: Setaria viridis” value in the data set with Setaria viridis is 5 (Herbicidal ratio of 90% or more (almost completely withered)). In the data set with Galium spurium, the “Q: Galium spurium” value is 2 (Herbicidal ratio of 20% or higher and lower than 40%). For the same molecule, the “Herbicidal effect grade, B” value in the data set with Scirpus juncoides is 5 (Herbicidal ratio of 90% or more (almost completely withered)).
As to `CON=C(C)CC1CC(O)=C(c2c(C)cc(C(=O)OC)cc2C)C1=O` (stereo not shown) [6-023], in the data set with corn, the “c: corn, effect on crop grade” value was 1 (Herbicidal ratio of 5% or higher and lower than 20%). The “K: Lolium multiflorum Lam., herbicidal effect grade” value with Lolium multiflorum Lam. is listed as 5 (Herbicidal ratio of 90% or more (almost completely withered)). The “d: soybean, effect on crop grade” value in the data set on soybean is 0 (Herbicidal ratio of 5% or lower (almost no effect)). Moreover, the “e: wheat, effect on crop grade” value in the data set on wheat is reported as 0 (Herbicidal ratio of 5% or lower (almost no effect)). The “Effect grade on crop” value in the data set on transplanted rice plant is 4 (Herbicidal ratio of 70% or higher and lower than 90%). The “b: directly sowed rice plant” value in the data set with rice is recorded as 5 (Herbicidal ratio of 90% or more (almost completely withered)). Also, the “P: Stellaria media” value in the data set on Stellaria media is on record as 0 (Herbicidal ratio of 5% or lower (almost no effect)). The “Herbicidal effect grade, A: Echinochloa oryzacola Vasing.” value in data set [1] was 0 (Herbicidal ratio of 5% or lower (almost no effect)). For the same molecule, the “J: Alopecurus myosuroides” value in the data set with Alopecurus myosuroides [2] was 5 (Herbicidal ratio of 90% or more (almost completely withered)); in the data set with Alopecurus myosuroides [3] it was 4 (Herbicidal ratio of 70% or higher and lower than 90%). For the same molecule, the “herbicidal effect on E, grade 0-5” value with Cyperus difformis was 4 (Herbicidal ratio of 70% or higher and lower than 90%). Moreover, the “G: Setaria viridis” value in the data set with Setaria viridis is given as 5 (Herbicidal ratio of 90% or more (almost completely withered)). The “Q: Galium spurium” value in the data set on Galium spurium is on record as 0 (Herbicidal ratio of 5% or lower (almost no effect)). The “Herbicidal effect grade, B” value in the data set on Scirpus juncoides is given as 0 (Herbicidal ratio of 5% or lower (almost no effect)).

The record behind these values is patent US11000033B2, “Ketone or oxime compound, and herbicide” (NISSAN CHEMICAL CORPORATION, priority 2014, dated 2021).
